Measurements from patent US12029217B2, “Safened compositions comprising pyridine carboxylate herbicides and isoxadifen” (Corteva Agriscience LLC, priority 2018, dated 2024).

Experiments:
Format in all cases: in vivo
[1] = system: Salsola kali (Russian thistle); assay: Greenhouse postemergence visual injury, Russian thistle (SASKR); conditions: Compound A 20 g/ha, Example 1
From the text: (§1) Seeds of the desired test plant species were planted in a 90:10% v/v (volume/volume) mixture of PRO-MIX® BX (Premier Tech Horticulture, Quakertown, PA, USA) and PROFILE® GREENS GRADE™ (Profile Products LLC, Buffalo Grove, IL, USA) planting mixture, which typically has a pH of 5.2 to 6.2 and an organic matter content of at least 50 percent, in plastic pots with a surface area of 103.2 square centimeters (cm^2). When required to ensure good germination and healthy plants, a fungicide treatment and/or other chemical or physical treatment was applied. The plants were grown for 7-36 days (d) in a greenhouse with an approximate 14-hour (h) photo-period which was maintained at about 23° C. during the day and 22° C. during the night. Nutrients and water were added on a regular basis and supplemental lighting was provided with overhead metal halide 1000-Watt lamps as necessary. The plants were employed for testing when they reached the second or third true leaf stage.
(§2) Emulsifiable concentrates of each of each pyridine carboxylate herbicide (Compound A or Compound B) were prepared at 100 grams acid equivalent per liter (g ae/L). An aliquot of each emulsifiable concentrate was placed in a 25 mL glass vial and diluted with an aqueous mixture of 1.25% (v/v) ACTIROB® B esterified rapeseed oil (Bayer Crop Science, Research Triangle Park, NC, USA) or MSO® Concentrate with LECI-TECH® methylated soybean oil (Loveland Products, Loveland, CO, USA) to obtain concentrated stock solutions at the highest application rate for each herbicide, based upon a 12 milliliter (mL) application volume at a rate of 187 liters per hectare (L/ha). The concentrated stock solutions were further diluted with an aqueous mixture of 1.25% v/v ACTIROB® B or MSO® Concentrate with LECI-TECH® to obtain stock solutions at reduced application rates for each herbicide. Spray solutions of the herbicide combinations (Compound A or Compound B plus safener) were prepared by adding weighed amounts or aliquots of the safener to the stock solutions of Compound A or Compound B to form 12-mL spray solutions in two-way combinations.
(§3) The spray solutions were applied to the plant material with an overhead Mandel track sprayer equipped with 8002E nozzles calibrated to deliver 187 L/ha over an application area of 0.503 square meters (m^2) at a spray height of 18 inches (43 centimeters (cm)) above the average plant canopy. […]
(§4) The treated plants and control plants were placed in a greenhouse as described above and watered by sub-irrigation to prevent wash-off of the test compounds. After 20-22 d, the condition of the test plants as compared with that of the control plants was determined visually and scored on a scale of 0 to 100 percent where 0 corresponds to no injury and 100 corresponds to complete kill.

[2] = system: Triticum aestivum (winter wheat); assay: Greenhouse postemergence visual injury, winter wheat (TRZAW)
From the text: as §1, §2
(§5) The spray solutions were applied to the plant material with an overhead Mandel track sprayer equipped with 8002E nozzles calibrated to deliver 187 L/ha over an application area of 0.503 square meters (m^2) at a spray height of 18 inches (43 centimeters (cm)) above the average plant canopy. Control plants were sprayed in the same manner with the solvent blank. All herbicide (component a) application rates are given as “g ae/ha” and all safener (component b) application rates are given as “g ai/ha.”
as §4

[3] = system: Saccharum officinarum (sugarcane); assay: Greenhouse postemergence visual injury, sugarcane (SACOF); conditions: Example 3
From the text: as §1, §2, §5, §4

[4] = system: Cyperus esculentus (nutsedge); assay: Greenhouse postemergence visual injury, nutsedge (CYPES)
From the text: as §1, §2, §5, §4

[5] = system: Abutilon theophrasti (velvetleaf); assay: Greenhouse postemergence visual injury, velvetleaf (ABUTH); conditions: Compound A 20 g/ha, Example 6
From the text: as §1, §2, §3, §4

[6] = system: Alopecurus myosuroides (blackgrass); assay: Greenhouse postemergence visual injury, blackgrass (ALOMY); conditions: Compound A 20 g/ha, Example 6
From the text: as §1, §2, §3, §4

[7] = system: Cirsium arvense (Canada thistle); assay: Greenhouse postemergence visual injury, Canada thistle (CIRAR); conditions: Compound A 20 g/ha, Example 6
From the text: as §1, §2, §3, §4

[8] = system: Digitaria sanguinalis (large crabgrass); assay: Greenhouse postemergence visual injury, large crabgrass (DIGSA)
From the text: as §1, §2, §5, §4

[9] = system: Erigeron canadensis (Canada horseweed); assay: Greenhouse postemergence visual injury, Canada horseweed (ERICA)
From the text: as §1, §2, §5, §4

Glycine max (soybean) = assay: Greenhouse postemergence visual injury, soybean (GLXMA)
From the text: as §1, §2, §5, §4

[10] = system: Ipomoea hederacea (ivyleaf morningglory); assay: Greenhouse postemergence visual injury, ivyleaf morningglory (IPOHE); conditions: Compound A 20 g/ha, Example 6
From the text: as §1, §2, §3, §4

Kochia scoparia (kochia) = assay: Greenhouse postemergence visual injury, kochia (KCHSC); conditions: Compound A 20 g/ha, Example 6
From the text: as §1, §2, §3, §4

[11] = system: Kochia scoparia (herbicide-resistant kochia); assay: Greenhouse postemergence visual injury, herbicide-resistant kochia (KCHSC-R); conditions: Compound A 20 g/ha, Example 6
From the text: as §1, §2, §3, §4

[12] = system: Leptochloa chinensis (Chinese sprangletop); assay: Greenhouse postemergence visual injury, Chinese sprangletop (LEFCH); conditions: Compound A 20 g/ha, Example 6
From the text: as §1, §2, §3, §4

[13] = system: Polygonum convolvulus (wild buckwheat); assay: Greenhouse postemergence visual injury, wild buckwheat (POLCO); conditions: Compound A 20 g/ha, Example 6
From the text: as §1, §2, §3, §4

[14] = system: Setaria faberi (giant foxtail); assay: Greenhouse postemergence visual injury, giant foxtail (SETFA)
From the text: as §1, §2, §5, §4

[15] = system: Sorghum halepense (Johnson grass); assay: Greenhouse postemergence visual injury, Johnson grass (SORHA)
From the text: as §1, §2, §5, §4

[16] = system: Viola tricolor (wild pansy); assay: Greenhouse postemergence visual injury, wild pansy (VIOTR); conditions: Compound A 20 g/ha, Example 6
From the text: as §1, §2, §3, §4

[17] = system: Amaranthus palmeri (glyphosate-resistant Palmer amaranth); assay: Greenhouse postemergence visual injury, glyphosate-resistant Palmer amaranth (AMAPA-Gly); conditions: Example 7
From the text: as §1, §2, §3, §4

[18] = system: Eleusine indica (goosegrass); assay: Greenhouse postemergence visual injury, goosegrass (ELEIN); conditions: Example 7
From the text: as §1, §2, §3, §4

N#CCOC(=O)c1nc(-c2ccc3cc[nH]c3c2F)c(F)c(N)c1Cl [Compound A, cyanomethyl 4-amino-3-chloro-5-fluoro-6-(7-fluoro-1H-indol-6-yl)pyridine-2-carboxylate]
% visual injury, Ob [1]: 60% | % visual injury, Ob ([2]; Compound A 20 g/ha, Example 6): 25% | % visual injury, Ob ([2]; Compound A 40 g/ha, Example 2): 25% | % visual injury, Ob ([3]; Compound A 5 g/ha): 18% | % visual injury, Ob ([3]; Compound A 10 g/ha): 48% | % visual injury, Ob ([3]; Compound A 20 g/ha): 55% | % visual injury, Ob ([3]; Compound A 40 g/ha): 60% | % visual injury, Ob ([4]; Compound A 20 g/ha, Example 6): 30% | % visual injury, Ob ([4]; Compound A 40 g/ha, Example 4): 73% | % visual injury, Ob ([4]; Compound A 40 g/ha, Example 5): 73% | % visual injury, Ob [5]: 95% | % visual injury, Ob [6]: 0% | % visual injury, Ob [7]: 95% | % visual injury, Ob ([8]; Compound A 10 g/ha, Example 7): 28% | % visual injury, Ob ([8]; Compound A 20 g/ha, Example 6): 30% | % visual injury, Ob ([8]; Compound A 20 g/ha, Example 7): 40% | % visual injury, Ob ([9]; Compound A 10 g/ha, Example 7): 90% | % visual injury, Ob ([9]; Compound A 20 g/ha, Example 6): 95% | % visual injury, Ob ([9]; Compound A 20 g/ha, Example 7): 95% | % visual injury, Ob (Glycine max (soybean); Compound A 10 g/ha, Example 7): 100% | % visual injury, Ob (Glycine max (soybean); Compound A 20 g/ha, Example 6): 100% | % visual injury, Ob (Glycine max (soybean); Compound A 20 g/ha, Example 7): 100% | % visual injury, Ob [10]: 0% | % visual injury, Ob (Kochia scoparia (kochia)): 97% | % visual injury, Ob [11]: 90% | % visual injury, Ob [12]: 60% | % visual injury, Ob [13]: 100% | % visual injury, Ob ([14]; Compound A 10 g/ha, Example 7): 85% | % visual injury, Ob ([14]; Compound A 20 g/ha, Example 6): 65% | % visual injury, Ob ([14]; Compound A 20 g/ha, Example 7): 95% | % visual injury, Ob ([15]; Compound A 10 g/ha, Example 7): 10% | % visual injury, Ob ([15]; Compound A 20 g/ha, Example 6): 0% | % visual injury, Ob ([15]; Compound A 20 g/ha, Example 7): 60% | % visual injury, Ob [16]: 30% | % visual injury, Ob ([17]; Compound A 10 g/ha): 100% | % visual injury, Ob ([17]; Compound A 20 g/ha): 100% | % visual injury, Ob ([18]; Compound A 10 g/ha): 73% | % visual injury, Ob ([18]; Compound A 20 g/ha): 93%
